According to patent US11446287B2, “Compounds and methods for EP300 or CBP modulation and indications therefor” (Opna Immuno-Oncology SA, priority 2019, dated 2022):
pIC50: −log10 of the molar value.

Molecular target: T1, Recombinant human CBP containing the bromodomain (CBP-BD (1043-1159)) (Homo sapiens, UniProt Q92793)
T1 construct: Recombinant human CBP bromodomain (CBP-BD (1043-1159)); made in house; host or cells: E. coli BL21-CodonPlus (DE3), modified pET vector
Experiment: CBP Alphascreen binding assay
Details: read-out: CREBBP (CBP) IC50
Outline: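 Buffer: 50 mM HEPES pH 7.5, 50 mM NaCl, 0.01% BSA, 0.01% Triton X-100, 2 mM DTT. The signal was normalised to plate controls and fitted with a four-parameter curve to give IC50.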

T1 sequence (Q92793 1081-1197): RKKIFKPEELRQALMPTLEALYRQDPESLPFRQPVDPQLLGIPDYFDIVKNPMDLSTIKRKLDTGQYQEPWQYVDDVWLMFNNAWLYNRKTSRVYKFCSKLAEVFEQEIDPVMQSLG

Question: `COc1nc(C(=O)O)ccc1-c1cn(C2CCOCC2)c2ncc(-c3c(C)noc3C)cc12` [P-0368, 5-(5-(3,5-dimethylisoxazol-4-yl)-1-(tetrahydro-2H-pyran-4-yl)-1H-pyrrolo[2,3-b]pyridin-3-yl)-6-methoxypicolinic acid] was tested. Which pIC50 did it give?
Answer: The pIC50 was 6.00 to 10.00.

Question: With `Cc1noc(C)c1-c1cnc2c(c1)c(-c1c(F)cc(C(=O)O)cc1OC(C)C)cn2C(C1CC1)C1CC1` [P-0369, 4-(1-(dicyclopropylmethyl)-5-(3,5-dimethylisoxazol-4-yl)-1H-pyrrolo[2,3-b]pyridin-3-yl)-3-fluoro-5-isopropoxybenzoic acid] as the compound, how does the pIC50 read?
Answer: The pIC50 was 6.00 to 10.00.

Question: How did the pIC50 turn out when `CCOc1cc(C(=O)O)cc(Cl)c1-c1cn(C(C2CC2)C2CC2)c2ncc(-c3c(C)noc3C)cc12` [P-0370, 3-chloro-4-(1-(dicyclopropylmethyl)-5-(3,5-dimethylisoxazol-4-yl)-1H-pyrrolo[2,3-b]pyridin-3-yl)-5-ethoxybenzoic acid] was run?
Answer: The pIC50 was 6.00 to 10.00.

Question: `CCOc1cc(C(=O)O)cc(Cl)c1-c1cn(C2CCOCC2)c2ncc(-c3c(C)noc3C)cc12` [P-0371, 3-chloro-4-(5-(3,5-dimethylisoxazol-4-yl)-1-(tetrahydro-2H-pyran-4-yl)-1H-pyrrolo[2,3-b]pyridin-3-yl)-5-ethoxybenzoic acid] was tested. Which pIC50 did it give?
Answer: The pIC50 was 6.00 to 10.00.

Question: `Cc1noc(C)c1-c1cnc2c(c1)c(-c1c(Cl)cc(C(=O)O)cc1OC(C)C)cn2C1CCOCC1` [P-0372, 3-chloro-4-(5-(3,5-dimethylisoxazol-4-yl)-1-(tetrahydro-2H-pyran-4-yl)-1H-pyrrolo[2,3-b]pyridin-3-yl)-5-isopropoxybenzoic acid] was tested. Which pIC50 did it give?
Answer: Its pIC50 is 6.00 to 10.00.

Question: `CCOc1cc(C(=O)O)nc(OCC)c1-c1cn(C2CCOCC2)c2ncc(-c3c(C)noc3C)cc12` [P-0373, 5-(5-(3,5-dimethylisoxazol-4-yl)-1-(tetrahydro-2H-pyran-4-yl)-1H-pyrrolo[2,3-b]pyridin-3-yl)-4,6-diethoxypicolinic acid] was tested. Which pIC50 did it give?
Answer: The pIC50 was 6.00 to 10.00.

Question: `CCOc1cc(C(=O)O)c(F)c(OCC)c1-c1cn(C2CCOCC2)c2ncc(-c3c(C)noc3C)cc12` [P-0374, 4-(5-(3,5-dimethylisoxazol-4-yl)-1-(tetrahydro-2H-pyran-4-yl)-1H-pyrrolo[2,3-b]pyridin-3-yl)-3,5-diethoxy-2-fluorobenzoic acid] was tested. Which pIC50 did it give?
Answer: The pIC50 was 6.00 to 10.00.

Question: With `CCOc1cc(C(=O)O)c(F)cc1-c1cn(C2CCOCC2)c2ncc(-c3c(C)noc3C)cc12` [P-0375, 4-(5-(3,5-dimethylisoxazol-4-yl)-1-(tetrahydro-2H-pyran-4-yl)-1H-pyrrolo[2,3-b]pyridin-3-yl)-5-ethoxy-2-fluorobenzoic acid] as the compound, how does the pIC50 read?
Answer: Its pIC50 is 6.00 to 10.00.

Question: `CCOc1nc(C(=O)O)ccc1-c1cn(C2CCOCC2)c2ncc(-c3c(C)noc3C)cc12` [P-0376, 5-(5-(3,5-dimethylisoxazol-4-yl)-1-(tetrahydro-2H-pyran-4-yl)-1H-pyrrolo[2,3-b]pyridin-3-yl)-6-ethoxypicolinic acid] was tested. Which pIC50 did it give?
Answer: The pIC50 was 6.00 to 10.00.

Question: `CCOc1cc(C(=O)O)c(F)cc1-c1cn(-c2ccccc2F)c2ncc(-c3c(C)noc3C)cc12` [P-0377, 4-(5-(3,5-dimethylisoxazol-4-yl)-1-(2-fluorophenyl)-1H-pyrrolo[2,3-b]pyridin-3-yl)-5-ethoxy-2-fluorobenzoic acid] was tested. Which pIC50 did it give?
Answer: Its pIC50 is 6.00 to 10.00.

Question: `Cc1noc(C)c1-c1cnc2c(c1)c(-c1ccc(C(=O)O)cc1OC(F)(F)F)cn2C1CCC1` [P-0378, 4-(1-cyclobutyl-5-(3,5-dimethylisoxazol-4-yl)-1H-pyrrolo[2,3-b]pyridin-3-yl)-3-(trifluoromethoxy)benzoic acid] was tested. Which pIC50 did it give?
Answer: The pIC50 was 6.00 to 10.00.

Question: How did the pIC50 turn out when `Cc1noc(C)c1-c1cnc2c(c1)c(-c1ccc(C(=O)O)cc1OC1CC1)cn2C1CCOCC1` [P-0379, 3-cyclopropoxy-4-(5-(3,5-dimethylisoxazol-4-yl)-1-(tetrahydro-2H-pyran-4-yl)-1H-pyrrolo[2,3-b]pyridin-3-yl)benzoic acid] was run?
Answer: Its pIC50 is 6.00 to 10.00.

Question: `Cc1noc(C)c1-c1cnc2c(c1)c(-c1c(Cl)cc(C(=O)O)cc1OC(F)(F)F)cn2C(C1CCC1)C1CCC1` [P-0380, 3-chloro-4-(1-(dicyclobutylmethyl)-5-(3,5-dimethylisoxazol-4-yl)-1H-pyrrolo[2,3-b]pyridin-3-yl)-5-(trifluoromethoxy)benzoic acid] was tested. Which pIC50 did it give?
Answer: Its pIC50 is 6.00 to 10.00.

Question: `Cc1noc(C)c1-c1cnc2c(c1)c(-c1c(Cl)cc(C(=O)O)cc1OC1CC1)cn2C1CCOCC1` [P-0381, 3-chloro-5-cyclopropoxy-4-(5-(3,5-dimethylisoxazol-4-yl)-1-(tetrahydro-2H-pyran-4-yl)-1H-pyrrolo[2,3-b]pyridin-3-yl)benzoic acid] was tested. Which pIC50 did it give?
Answer: The pIC50 was 6.00 to 10.00.

Question: `Cc1noc(C)c1-c1cnc2c(c1)c(-c1ccc(C(=O)O)cc1OC(F)(F)F)cn2C1CCCC1` [P-0382, 4-(1-cyclopentyl-5-(3,5-dimethylisoxazol-4-yl)-1H-pyrrolo[2,3-b]pyridin-3-yl)-3-(trifluoromethoxy)benzoic acid] was tested. Which pIC50 did it give?
Answer: Its pIC50 is 6.00 to 10.00.

Question: How did the pIC50 turn out when `Cc1noc(C)c1-c1cnc2c(c1)c(-c1ccc(C(=O)O)cc1OC(F)(F)F)cn2C1(C)CCOC1` (centres unmarked) [P-0383, 4-(5-(3,5-dimethylisoxazol-4-yl)-1-(3-methyltetrahydrofuran-3-yl)-1H-pyrrolo[2,3-b]pyridin-3-yl)-3-(trifluoromethoxy)benzoic acid] was run?
Answer: Its pIC50 is 6.00 to 10.00.

Question: With `Cc1noc(C)c1-c1cnc2c(c1)c(-c1ccc(C(=O)O)cc1OC(F)(F)F)cn2-c1cnc(C2CC2)nc1` [P-0384, 4-(1-(2-cyclopropylpyrimidin-5-yl)-5-(3,5-dimethylisoxazol-4-yl)-1H-pyrrolo[2,3-b]pyridin-3-yl)-3-(trifluoromethoxy)benzoic acid] as the compound, how does the pIC50 read?
Answer: The pIC50 was 6.00 to 10.00.

Question: `Cc1noc(C)c1-c1cnc2c(c1)c(-c1ccc(C(=O)O)cc1OC(F)(F)F)cn2C1(C)CCOCC1` [P-0385, 4-(5-(3,5-dimethylisoxazol-4-yl)-1-(4-methyltetrahydro-2H-pyran-4-yl)-1H-pyrrolo[2,3-b]pyridin-3-yl)-3-(trifluoromethoxy)benzoic acid] was tested. Which pIC50 did it give?
Answer: The pIC50 was 6.00 to 10.00.

Question: How did the pIC50 turn out when `Cc1noc(C)c1-c1cnc2c(c1)c(-c1c(Cl)cc(C(=O)O)cc1OC(F)(F)F)cn2-c1cnc(C2CC2)nc1` [P-0386, 3-chloro-4-(1-(2-cyclopropylpyrimidin-5-yl)-5-(3,5-dimethylisoxazol-4-yl)-1H-pyrrolo[2,3-b]pyridin-3-yl)-5-(trifluoromethoxy)benzoic acid] was run?
Answer: The pIC50 was 6.00 to 10.00.

Question: How did the pIC50 turn out when `Cc1noc(C)c1-c1cnc2c(c1)c(-c1ccc(C(=O)O)cc1OCC(F)F)cn2-c1cnc(C2CC2)nc1` [P-0387, 4-(1-(2-cyclopropylpyrimidin-5-yl)-5-(3,5-dimethylisoxazol-4-yl)-1H-pyrrolo[2,3-b]pyridin-3-yl)-3-(2,2-difluoroethoxy)benzoic acid] was run?
Answer: Its pIC50 is 6.00 to 10.00.
